Laboratory results: ChEMBL document CHEMBL5030546, “Synthesis of thiocolchicine amine derivatives and evaluation of their antiproliferative activity” (Bioorg Med Chem Lett, 2021)

Assays:
cells = format: functional, cell-based; conditions: Homo sapiens, LoVo/DX, 72 h
Description: Antiproliferative activity against human Lovo/DX cells assessed as inhibition of cell proliferation incubated for 72 hrs by SRB assay

A549 = experiment: cells; format: functional, cell-based; conditions: Homo sapiens, A549, 72 h
Description: Antiproliferative activity against human A549 cells assessed as inhibition of cell proliferation incubated for 72 hrs by SRB assay

LoVo = experiment: cells; format: functional, cell-based; conditions: Homo sapiens, 72 h
Description: Antiproliferative activity against human LoVo cells assessed as inhibition of cell proliferation incubated for 72 hrs by SRB assay

BALB/3T3 = experiment: Cytotoxicity against mouse BALB/3T3 cells assessed as reduction in cell viability incubated for 72 hrs by SRB assay; format: ADME, cell-based; conditions: BALB/3T3, 72 h
[1] = Resistance index, ratio of IC50 for human LoVo/DX cells to IC50 for human LoVo cells; format: functional
MCF7 = experiment: cells; format: functional, cell-based; conditions: Homo sapiens, MCF7, 72 h
Description: Antiproliferative activity against human MCF7 cells assessed as inhibition of cell proliferation incubated for 72 hrs by SRB assay

[2] = Selectivity index, ratio of IC50 for mouse BALB/3T3 cells to IC50 for human MCF7 cells; format: toxicity; conditions: BALB/3T3 cells versus MCF7 cells, read-out: Ratio IC50
[3] = Selectivity index, ratio of IC50 for mouse BALB/3T3 cells to IC50 for human LoVo/DX cells; format: toxicity; conditions: BALB/3T3 cells versus LoVo/DX cells, read-out: Ratio IC50
[4] = Selectivity index, ratio of IC50 for mouse BALB/3T3 cells to IC50 for human A549 cells; format: toxicity; conditions: BALB/3T3 cells versus A549 cells, read-out: Ratio IC50
[5] = Selectivity index, ratio of IC50 for mouse BALB/3T3 cells to IC50 for human LoVo cells; format: toxicity; conditions: BALB/3T3 cells versus LoVo cells, read-out: Ratio IC50

| Structure (SMILES) | IC50 (cells) | IC50 (A549) | IC50 (LoVo) | IC50 (BALB/3T3) | Ratio IC50 [1] | IC50 (MCF7) | selectivity ratio [2] | selectivity ratio [3] | selectivity ratio [4] | selectivity ratio [5] |
| --- | --- | --- | --- | --- | --- | --- | --- | --- | --- | --- |
| CCN[C@H]1CCc2cc(OC)c(OC)c(OC)c2-c2ccc(SC)c(=O)cc21 | 0.0549 µM | 0.0108 µM | 0.0065 µM | 0.0102 µM | 8.5 | 0.0103 µM |  |  |  |  |
| COc1cc2c(c(OC)c1OC)-c1ccc(SC)c(=O)cc1[C@@H](NCc1ccc(F)cc1)CC2 | 0.0332 µM | 0.0096 µM | 0.0076 µM | 0.0117 µM | 4.4 | 0.0112 µM |  |  |  |  |
| CCCC(C)CN[C@H]1CCc2cc(OC)c(OC)c(OC)c2-c2ccc(SC)c(=O)cc21 (stereo partly specified) | 0.0702 µM | 0.011 µM | 0.012 µM | 0.0785 µM | 5.8 | 0.0178 µM |  |  |  |  |
| COc1cc2c(c(OC)c1OC)-c1ccc(SC)c(=O)cc1[C@@H](NCc1ccncc1)CC2 | 0.0562 µM | 0.0109 µM | 0.0078 µM | 0.0109 µM | 7.2 | 0.0097 µM |  |  |  |  |
| COc1cc2c(c(OC)c1OC)-c1ccc(SC)c(=O)cc1[C@@H](NCc1ccccc1O)CC2 | 0.0417 µM | 0.0093 µM | 0.0094 µM | 0.0088 µM | 4.5 | 0.0103 µM |  |  |  |  |
| CCCCCN[C@H]1CCc2cc(OC)c(OC)c(OC)c2-c2ccc(SC)c(=O)cc21 | 0.0778 µM | 0.0895 µM | 0.0528 µM | 0.0994 µM | 1.5 | 0.0927 µM |  |  |  |  |
| COc1cc(CN[C@H]2CCc3cc(OC)c(OC)c(OC)c3-c3ccc(SC)c(=O)cc32)ccc1O | 0.0856 µM | 0.0071 µM | 0.0533 µM | 0.385 µM | 1.8 | 0.0082 µM | 46.9 | 4.5 | 54.2 | 7.2 |
| CCCCN[C@H]1CCc2cc(OC)c(OC)c(OC)c2-c2ccc(SC)c(=O)cc21 | 0.0179 µM | 0.0109 µM | 0.0088 µM | 0.0117 µM | 2 | 0.0122 µM |  |  |  |  |
| COc1ccc(CN[C@H]2CCc3cc(OC)c(OC)c(OC)c3-c3ccc(SC)c(=O)cc32)cc1O | 0.0694 µM | 0.0108 µM | 0.0088 µM | 0.0108 µM | 7.9 | 0.0103 µM |  |  |  |  |
| COc1cc2c(c(OC)c1OC)-c1ccc(SC)c(=O)cc1[C@@H](NCc1ccc(Cl)cc1)CC2 | 0.0649 µM | 0.0705 µM | 0.037 µM | 0.0882 µM | 1.8 | 0.0734 µM |  |  |  |  |
| COc1cc2c(c(OC)c1OC)-c1ccc(SC)c(=O)cc1[C@@H](NCc1ccc(I)cc1)CC2 | 0.234 µM | 0.101 µM | 0.0724 µM | 0.119 µM | 3.2 | 0.0842 µM |  |  |  |  |
| COc1cc2c(c(OC)c1OC)-c1ccc(SC)c(=O)cc1[C@@H](NCCc1ccccc1)CC2 | 0.0669 µM | 0.0107 µM | 0.0107 µM | 0.0612 µM | 6.2 | 0.0114 µM |  |  |  |  |
| COc1cc2c(c(OC)c1OC)-c1ccc(SC)c(=O)cc1[C@@H](NCC(C)C)CC2 | 0.0102 µM | 0.0105 µM | 0.0085 µM | 0.011 µM | 1.2 | 0.0113 µM |  |  |  |  |
| COc1cc2c(c(OC)c1OC)-c1ccc(SC)c(=O)cc1[C@@H](NCc1ccccc1)CC2 | 0.0139 µM | 0.0096 µM | 0.0079 µM | 0.0098 µM | 1.8 | 0.0103 µM |  |  |  |  |
| CCCN[C@H]1CCc2cc(OC)c(OC)c(OC)c2-c2ccc(SC)c(=O)cc21 | 0.0311 µM | 0.0116 µM | 0.0085 µM | 0.0143 µM | 3.7 | 0.012 µM |  |  |  |  |
| CCCCCCN[C@H]1CCc2cc(OC)c(OC)c(OC)c2-c2ccc(SC)c(=O)cc21 | 0.0727 µM | 0.104 µM | 0.083 µM | 0.107 µM | 0.9 | 0.109 µM |  |  |  |  |
| CCCCCCCCN[C@H]1CCc2cc(OC)c(OC)c(OC)c2-c2ccc(SC)c(=O)cc21 | 0.693 µM | 1.01 µM | 0.903 µM | 1.04 µM | 0.8 | 1.12 µM |  |  |  |  |
| COc1cc2c(c(OC)c1OC)-c1ccc(SC)c(=O)cc1[C@@H](NCCC(C)C)CC2 | 0.0094 µM | 0.0131 µM | 0.0084 µM | 0.0133 µM | 1 | 0.012 µM |  |  |  |  |
| COc1cc2c(c(OC)c1OC)-c1ccc(SC)c(=O)cc1[C@@H](NC/C=C/c1ccccc1)CC2 | 0.21 µM | 0.095 µM | 0.0792 µM | 0.0986 µM | 2.7 | 0.102 µM |  |  |  |  |
| COc1cc2c(c(OC)c1OC)-c1ccc(SC)c(=O)cc1[C@@H](NCc1cccc(CN[C@H]3CCc4cc(OC)c(OC)c(OC)c4-c4ccc(SC)c(=O)cc43)n1)CC2 | 0.4 µM | 0.0473 µM | 0.0279 µM | 0.0503 µM | 14.3 | 0.0077 µM |  |  |  |  |
| COc1cc2c(c(OC)c1OC)-c1ccc(SC)c(=O)cc1[C@@H](NCc1ccc(C)cc1)CC2 | 0.0523 µM | 0.0834 µM | 0.0476 µM | 0.0854 µM | 1.1 | 0.1 µM |  |  |  |  |
| CCCCCCCCCCCCN[C@H]1CCc2cc(OC)c(OC)c(OC)c2-c2ccc(SC)c(=O)cc21 | 1.98 µM | 0.152 µM | 0.453 µM | 1.07 µM | 4.4 | 0.719 µM |  |  |  |  |
| COc1cc2c(c(OC)c1OC)-c1ccc(OC)c(=O)cc1[C@@H](NC(C)=O)CC2 [COLCHICINE] | 0.967 µM | 0.0193 µM | 0.0127 µM | 0.0823 µM |  |  |  |  |  |  |
| COc1cccc2c1C(=O)c1c(O)c3c(c(O)c1C2=O)C[C@@](O)(C(=O)CO)C[C@@H]3O[C@H]1C[C@H](N)[C@H](O)[C@H](C)O1 [DOXORUBICIN] | 3.96 µM | 0.149 µM | 0.071 µM | 0.315 µM | 56 | 0.146 µM |  |  |  |  |
